Laboratory results: article PMC7486443, “Generation of Phenothiazine with Potent Anti-TLK1 Activity for Prostate Cancer Therapy” (iScience, 2020)

Assays:
Experiment in all cases: biochemical
Set-up in all cases: DiscoverX KINOMEscan scanMAX competition binding panel, single concentration, percent of control; remaining binding: dose or concentration left out as unconfirmed
Conditions in all cases: KINOMEscan binding, percent of control; read-out: Table S4_SCANMAX REPORT - related to Fig. 1 / Percent Control
MAP3K3 = MAP3K3 (Homo sapiens, UniProt Q99759)
EPHA2 = EPHA2 (Homo sapiens, UniProt P29317)
ABL1-nonphosphorylated = molecular target: T1, ABL1-nonphosphorylated (Homo sapiens, UniProt P00519)
T1 construct: nonphosphorylated

TIE2 = molecular target: T2, TIE2 (Homo sapiens, UniProt Q02763)
T2 construct: gene TEK

EPHA7 = EPHA7 (Homo sapiens, UniProt Q15375)
PAK3 = PAK3 (Homo sapiens, UniProt O75914)
GSK3A = GSK3A (Homo sapiens, UniProt P49840)
ACVR2B = ACVR2B (Homo sapiens, UniProt Q13705)
FLT3(D835H) = FLT3(D835H) (Homo sapiens, UniProt P36888, D835H)
PKMYT1 = PKMYT1 (Homo sapiens, UniProt Q99640)
CAMK2D = CAMK2D (Homo sapiens, UniProt Q13557)
DRAK2 = molecular target: T3, DRAK2 (Homo sapiens, UniProt O94768)
T3 construct: gene STK17B

MST3 = molecular target: T4, MST3 (Homo sapiens, UniProt Q9Y6E0)
T4 construct: gene STK24

DAPK1 = DAPK1 (Homo sapiens, UniProt P53355)
RIOK3 = RIOK3 (Homo sapiens, UniProt O14730)
MST1 = molecular target: T5, MST1 (Homo sapiens, UniProt Q13043)
T5 construct: gene STK4

ALK = ALK (Homo sapiens, UniProt Q9UM73)
DAPK2 = DAPK2 (Homo sapiens, UniProt Q9UIK4)
BMPR1B = BMPR1B (Homo sapiens, UniProt O00238)
Sequence of BMPR1B (O00238 whole entry): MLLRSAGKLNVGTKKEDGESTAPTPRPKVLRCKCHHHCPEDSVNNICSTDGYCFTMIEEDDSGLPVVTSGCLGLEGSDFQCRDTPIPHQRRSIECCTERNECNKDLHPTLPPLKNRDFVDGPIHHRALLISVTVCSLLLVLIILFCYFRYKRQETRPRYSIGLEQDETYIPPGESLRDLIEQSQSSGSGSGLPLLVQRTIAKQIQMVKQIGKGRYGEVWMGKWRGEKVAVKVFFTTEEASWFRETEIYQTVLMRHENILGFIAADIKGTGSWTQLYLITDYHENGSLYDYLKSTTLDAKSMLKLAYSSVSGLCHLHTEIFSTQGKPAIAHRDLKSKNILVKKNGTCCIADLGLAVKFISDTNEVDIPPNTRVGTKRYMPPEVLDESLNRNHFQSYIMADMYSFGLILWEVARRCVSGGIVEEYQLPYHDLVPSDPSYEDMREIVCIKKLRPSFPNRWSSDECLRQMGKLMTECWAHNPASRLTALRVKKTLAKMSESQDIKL

T2 sequence (Q02763 whole entry): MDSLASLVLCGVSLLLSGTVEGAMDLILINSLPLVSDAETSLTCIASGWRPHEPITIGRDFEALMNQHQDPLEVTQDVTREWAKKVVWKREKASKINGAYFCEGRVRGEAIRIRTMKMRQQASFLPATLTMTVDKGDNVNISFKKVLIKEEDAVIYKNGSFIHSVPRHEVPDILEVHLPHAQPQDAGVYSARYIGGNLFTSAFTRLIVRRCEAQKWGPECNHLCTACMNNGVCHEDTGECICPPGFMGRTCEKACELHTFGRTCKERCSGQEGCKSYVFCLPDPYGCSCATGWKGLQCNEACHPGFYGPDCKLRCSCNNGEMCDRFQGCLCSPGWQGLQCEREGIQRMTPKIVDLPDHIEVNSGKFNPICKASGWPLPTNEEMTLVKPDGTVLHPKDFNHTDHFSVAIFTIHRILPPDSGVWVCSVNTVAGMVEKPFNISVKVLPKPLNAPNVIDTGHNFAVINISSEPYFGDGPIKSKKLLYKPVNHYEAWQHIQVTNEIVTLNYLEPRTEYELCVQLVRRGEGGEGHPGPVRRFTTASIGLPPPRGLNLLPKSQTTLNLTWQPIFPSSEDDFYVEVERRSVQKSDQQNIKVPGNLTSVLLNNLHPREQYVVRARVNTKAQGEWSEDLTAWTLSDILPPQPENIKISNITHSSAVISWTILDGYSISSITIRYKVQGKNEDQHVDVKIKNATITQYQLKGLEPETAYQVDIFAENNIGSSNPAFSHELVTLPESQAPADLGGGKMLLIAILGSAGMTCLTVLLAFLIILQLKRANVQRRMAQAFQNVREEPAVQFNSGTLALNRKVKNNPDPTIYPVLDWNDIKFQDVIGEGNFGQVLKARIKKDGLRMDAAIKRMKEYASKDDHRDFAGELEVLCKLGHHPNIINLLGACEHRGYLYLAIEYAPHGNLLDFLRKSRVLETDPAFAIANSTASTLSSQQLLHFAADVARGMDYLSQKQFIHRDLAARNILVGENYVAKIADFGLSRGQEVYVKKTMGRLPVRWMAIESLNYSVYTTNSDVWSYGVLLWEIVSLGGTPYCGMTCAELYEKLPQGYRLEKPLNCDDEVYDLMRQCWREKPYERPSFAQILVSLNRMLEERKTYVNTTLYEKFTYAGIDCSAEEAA
Sequence of PAK3 (O75914 whole entry): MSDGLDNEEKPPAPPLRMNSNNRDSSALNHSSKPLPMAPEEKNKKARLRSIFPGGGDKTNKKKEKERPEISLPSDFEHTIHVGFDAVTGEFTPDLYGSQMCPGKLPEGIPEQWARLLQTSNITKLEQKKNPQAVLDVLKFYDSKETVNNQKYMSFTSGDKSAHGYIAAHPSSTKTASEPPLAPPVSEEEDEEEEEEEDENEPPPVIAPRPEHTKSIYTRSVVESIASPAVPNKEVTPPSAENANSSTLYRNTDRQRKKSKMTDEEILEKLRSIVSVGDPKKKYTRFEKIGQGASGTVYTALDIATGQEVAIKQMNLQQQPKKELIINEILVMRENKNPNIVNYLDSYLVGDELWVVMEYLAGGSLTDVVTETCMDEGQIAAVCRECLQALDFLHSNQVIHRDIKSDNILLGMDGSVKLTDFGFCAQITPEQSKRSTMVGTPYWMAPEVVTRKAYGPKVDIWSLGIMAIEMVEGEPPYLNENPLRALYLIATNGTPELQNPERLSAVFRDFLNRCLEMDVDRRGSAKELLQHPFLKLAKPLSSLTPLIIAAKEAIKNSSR
T5 sequence (Q13043 whole entry): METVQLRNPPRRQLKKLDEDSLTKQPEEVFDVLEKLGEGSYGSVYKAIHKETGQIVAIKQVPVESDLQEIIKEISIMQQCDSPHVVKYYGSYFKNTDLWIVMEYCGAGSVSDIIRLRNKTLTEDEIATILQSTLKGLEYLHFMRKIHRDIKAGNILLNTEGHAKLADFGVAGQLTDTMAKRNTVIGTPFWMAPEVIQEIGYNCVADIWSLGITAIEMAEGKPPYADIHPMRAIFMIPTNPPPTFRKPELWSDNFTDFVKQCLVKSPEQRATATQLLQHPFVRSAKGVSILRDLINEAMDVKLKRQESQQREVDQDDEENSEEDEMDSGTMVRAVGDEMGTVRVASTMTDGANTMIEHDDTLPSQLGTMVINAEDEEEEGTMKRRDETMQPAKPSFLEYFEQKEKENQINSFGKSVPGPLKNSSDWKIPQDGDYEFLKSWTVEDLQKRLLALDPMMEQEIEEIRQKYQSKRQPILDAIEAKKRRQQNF
Sequence of PKMYT1 (Q99640 whole entry): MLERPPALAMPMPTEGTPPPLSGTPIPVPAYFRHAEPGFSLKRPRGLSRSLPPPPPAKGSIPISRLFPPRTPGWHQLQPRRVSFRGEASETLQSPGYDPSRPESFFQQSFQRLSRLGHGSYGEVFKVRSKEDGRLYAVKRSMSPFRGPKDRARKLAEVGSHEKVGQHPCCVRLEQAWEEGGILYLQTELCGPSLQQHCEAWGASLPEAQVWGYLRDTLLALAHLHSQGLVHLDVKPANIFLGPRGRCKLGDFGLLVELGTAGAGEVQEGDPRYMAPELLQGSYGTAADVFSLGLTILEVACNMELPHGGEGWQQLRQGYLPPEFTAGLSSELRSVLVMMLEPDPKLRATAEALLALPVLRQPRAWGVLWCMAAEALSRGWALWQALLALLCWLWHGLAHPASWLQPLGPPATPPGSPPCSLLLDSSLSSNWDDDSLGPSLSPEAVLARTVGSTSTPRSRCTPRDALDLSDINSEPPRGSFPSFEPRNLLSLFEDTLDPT
Sequence of RIOK3 (O14730 whole entry): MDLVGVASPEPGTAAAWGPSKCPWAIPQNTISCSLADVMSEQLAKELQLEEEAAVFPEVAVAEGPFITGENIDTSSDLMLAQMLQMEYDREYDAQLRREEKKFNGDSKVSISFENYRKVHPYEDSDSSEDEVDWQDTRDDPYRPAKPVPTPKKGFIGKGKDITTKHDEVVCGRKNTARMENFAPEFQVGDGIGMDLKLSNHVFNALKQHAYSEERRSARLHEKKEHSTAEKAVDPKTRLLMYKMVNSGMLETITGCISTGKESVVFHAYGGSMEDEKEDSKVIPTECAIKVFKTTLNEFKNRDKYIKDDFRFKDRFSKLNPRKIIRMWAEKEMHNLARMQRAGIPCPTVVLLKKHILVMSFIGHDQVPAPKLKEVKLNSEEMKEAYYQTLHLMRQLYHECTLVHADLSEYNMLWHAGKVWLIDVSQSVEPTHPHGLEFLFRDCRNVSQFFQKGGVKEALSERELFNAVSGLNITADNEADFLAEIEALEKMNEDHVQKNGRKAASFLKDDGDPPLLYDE
Sequence of EPHA2 (P29317 whole entry): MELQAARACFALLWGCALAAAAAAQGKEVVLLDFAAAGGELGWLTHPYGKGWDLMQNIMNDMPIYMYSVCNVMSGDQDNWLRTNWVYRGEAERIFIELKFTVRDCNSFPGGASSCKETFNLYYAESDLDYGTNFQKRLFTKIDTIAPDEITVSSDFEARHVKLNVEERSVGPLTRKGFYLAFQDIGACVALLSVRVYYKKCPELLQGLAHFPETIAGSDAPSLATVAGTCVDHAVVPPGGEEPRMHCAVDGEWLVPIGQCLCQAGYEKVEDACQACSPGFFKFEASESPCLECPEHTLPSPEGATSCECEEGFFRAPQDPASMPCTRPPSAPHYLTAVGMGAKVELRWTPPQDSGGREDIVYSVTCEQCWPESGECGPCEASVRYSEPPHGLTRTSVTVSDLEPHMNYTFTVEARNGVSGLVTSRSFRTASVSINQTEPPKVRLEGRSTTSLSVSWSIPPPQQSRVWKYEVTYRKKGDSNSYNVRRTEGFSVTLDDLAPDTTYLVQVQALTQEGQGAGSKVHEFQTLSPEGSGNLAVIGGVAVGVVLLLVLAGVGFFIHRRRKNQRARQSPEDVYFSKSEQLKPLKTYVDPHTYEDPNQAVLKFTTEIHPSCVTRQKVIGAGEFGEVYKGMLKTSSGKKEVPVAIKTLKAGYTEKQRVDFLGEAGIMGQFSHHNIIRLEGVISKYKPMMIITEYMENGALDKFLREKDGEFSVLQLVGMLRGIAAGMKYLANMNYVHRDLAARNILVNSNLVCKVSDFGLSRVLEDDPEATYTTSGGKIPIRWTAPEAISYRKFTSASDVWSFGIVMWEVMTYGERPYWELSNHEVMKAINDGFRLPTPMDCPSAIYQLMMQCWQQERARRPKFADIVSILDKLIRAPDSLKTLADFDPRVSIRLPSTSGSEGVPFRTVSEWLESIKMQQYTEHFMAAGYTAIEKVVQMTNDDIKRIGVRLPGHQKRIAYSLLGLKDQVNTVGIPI
T3 sequence (O94768 whole entry): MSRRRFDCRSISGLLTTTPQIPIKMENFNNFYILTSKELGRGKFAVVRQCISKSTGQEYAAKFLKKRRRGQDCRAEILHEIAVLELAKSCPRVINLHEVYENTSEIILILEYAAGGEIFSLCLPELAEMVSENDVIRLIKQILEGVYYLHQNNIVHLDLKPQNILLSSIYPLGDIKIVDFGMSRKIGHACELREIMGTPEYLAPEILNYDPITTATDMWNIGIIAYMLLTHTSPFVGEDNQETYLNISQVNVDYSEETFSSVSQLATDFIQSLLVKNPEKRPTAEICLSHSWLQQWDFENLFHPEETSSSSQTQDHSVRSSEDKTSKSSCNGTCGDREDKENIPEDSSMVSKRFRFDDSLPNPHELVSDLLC

For c1ccc2c(c1)Sc1ccccc1N2CCN1CCOCC1 [J54], the remaining binding (MAP3K3) was 100%, the remaining binding (EPHA2) was 100% and the remaining binding (ABL1-nonphosphorylated) was 95%. It also gave a remaining binding (TIE2) of 76%, a remaining binding (EPHA7) of 100% and a remaining binding (PAK3) of 100%. The remaining binding (GSK3A) was 80%, the remaining binding (ACVR2B) was 86% and the remaining binding (FLT3(D835H)) was 100%. The remaining binding (PKMYT1) was 100%, the remaining binding (CAMK2D) was 100% and the remaining binding (DRAK2) was 83%. For the same compound, the remaining binding (MST3) was 100%, the remaining binding (DAPK1) was 99% and the remaining binding (RIOK3) was 72%. It also gave a remaining binding (MST1) of 100%, a remaining binding (ALK) of 59% and a remaining binding (DAPK2) of 97%. The remaining binding (BMPR1B) was 93%.
